“Also recorded” adds a separate entry of the source.
Test system: VK-AD11 mice
Test: Reversal of the neurodegenerative phenotype of VK-AD11 mice by intranasal NGF administration
Format: in vivo
Conditions: VK-AD11 mice from 4 months of age, NGF 10 μM solution intranasally every 2 days
Description: All experiments were conducted in mice starting from 4 months of age, when neurodegeneration is not so readily apparent. NGF was administered by intranasal injection (Frey et al., 1997) conducted every 2 days. NGF was administered as a 10 μM solution in phosphate buffer pH 7.4, injecting 3 μl per nostril every 2 min and alternating nostrils. The VK-AD11 control mice and non transgenic mice were treated only with phosphate buffer. For each administration, the infusion lasted 30 min. This non invasive method for administering NGF allows to avoid the use of the intraventricular injections to apply NGF directly to the cerebral tissue.
To verify the administration of NGF, the mice were sacrificed 2 months from the begining of the treatment. The brain was removed and fixed in paraformaldehyde to conduct histological analyses.

With “NGF: Nerve Growth Factor, administered intranasally as a 10 μM solution in phosphate buffer pH 7.4” the cholinergic deficit (histology 2 months from beginning of treatment (FIG. 18A)) was “improves; also recorded: a similar phenotype to that of the non transgenic control mice was re-established”, the “deposition of β-amyloid (number of cells containing β-amyloid)” value (histology 2 months from beginning of treatment (FIG. 18B)) was “decreases; also recorded: a similar phenotype to that of the non transgenic control mice was re-established” and the “hyperphosphorylated tau (number of cells that express phosphorylated tau)” value (histology 2 months from beginning of treatment (FIG. 18C)) was “decreases; also recorded: a similar phenotype to that of the non transgenic control mice was re-established”.
